Reference: patent publication US20080188659A1, “Method for Preparing Halogenated Amines” (Wyeth, priority 2007, published 2008)
Where two headings read alike, the source gives them in different places.

What was measured:
[1] = target: T1, human 11b-HSD1 (Homo sapiens, UniProt P28845); test: cell-based assay, stable CHO cell line expressing human 11b-HSD1, cortisol measured with DiscoverX HitHunter Cortisol Assay; conditions: CHO cells expressing human 11b-HSD1; serum-free media; 500 nM cortisone, 120 minutes; read-out: Human 1C50
T1 construct: expressed in transfected cells
T1 sequence (P28845 whole entry): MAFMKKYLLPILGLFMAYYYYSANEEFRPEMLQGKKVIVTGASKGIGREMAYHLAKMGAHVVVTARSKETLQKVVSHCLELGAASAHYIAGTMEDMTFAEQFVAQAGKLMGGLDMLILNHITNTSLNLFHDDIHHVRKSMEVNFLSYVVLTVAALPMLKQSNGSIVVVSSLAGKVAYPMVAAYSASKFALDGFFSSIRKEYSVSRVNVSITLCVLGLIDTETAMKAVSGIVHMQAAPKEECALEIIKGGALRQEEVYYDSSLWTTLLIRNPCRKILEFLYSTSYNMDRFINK
Method: Compounds described herein can be tested in a cell-based assay using a stable CHO cell line expressing human 11b-HSD1. Cells are plated at 20,000 cells/well in 96 well plates and incubated overnight (12-16 hrs) at 37° C./5% CO2. Cells are treated with different concentration of compound in 90 microliter serum-free media and incubated for 30 minutes at 37° C./5% CO2. 10 ul of 5 micromolar cortisone (final concentration 500 nM) is then added to the cells and the plate is incubated at 37° C./5% CO2 for 120 minutes. 15 microliter of media is withdrawn and amount of cortisol in the media is measured using the DiscoverX HitHunter Cortisol Assay (DiscoverX corp, CA).

[2] = target: T2, mouse 11b-HSD1 (Mus musculus, UniProt P50172); test: cell-based assay, stable CHO cell line expressing mouse 11b-HSD1, cortisol measured with DiscoverX HitHunter Cortisol Assay; conditions: CHO cells expressing mouse 11b-HSD1, 500 nM cortisone, 120 minutes
T2 construct: expressed in transfected cells
T2 sequence (P50172 whole entry): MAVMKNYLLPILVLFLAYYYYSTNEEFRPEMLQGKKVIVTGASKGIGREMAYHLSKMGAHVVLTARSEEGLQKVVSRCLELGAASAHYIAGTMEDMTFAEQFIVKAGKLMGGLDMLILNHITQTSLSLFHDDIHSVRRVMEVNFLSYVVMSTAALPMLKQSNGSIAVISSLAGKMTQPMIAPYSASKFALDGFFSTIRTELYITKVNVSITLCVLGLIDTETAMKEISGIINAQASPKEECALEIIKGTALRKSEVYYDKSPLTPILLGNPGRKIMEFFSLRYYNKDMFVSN
Method: To determine the potency of compounds against mouse 11b-HSD1, a stable CHO cell line expressing mouse 11b-HSD1 is used. Cells are plated at 20,000 cells/well in 96 well plates and incubated overnight (12-16 hrs) at 37° C./5% CO2. […] 10 ul of 5 micromolar cortisone (final concentration 500 nM) is then added to the cells and the plate is incubated at 37° C./5% CO2 for 120 minutes. 15 microliter of media is withdrawn and amount of cortisol in the media is measured using the DiscoverX HitHunter Cortisol Assay (DiscoverX corp, CA).

[3] = media containing 10% delipidized human serum, read-out: Mouse + Serum 1C50
[4] = serum-free media, read-out: Mouse 1C50

IC50 [1] [nM]	IC50 [2, 3] [nM]	IC50 [2, 4] [nM]	Compound
428	731	613	NC(c1ccc(S(=O)(=O)N2CCCCC2)cc1)(C(F)(F)F)C(F)(F)F [Example 2, 2,2,2-Trifluoro-1-[4-(piperidine-1-sulfonyl)-phenyl]-1-trifluoromethyl-ethylamine]
> 10000	8380	> 10000	NC(c1ccc(C(=O)N2CCCCC2)cc1)(C(F)(F)F)C(F)(F)F [Example 9, [4-(1-Amino-2,2,2-trifluoro-1-trifluoromethyl-ethyl)-phenyl]-piperidin-1-yl-methanone]
> 10000	3320	> 10000	NC(c1cccc(S(=O)(=O)N2CCCCC2)c1)(C(F)(F)F)C(F)(F)F [Example 1, 2,2,2-Trifluoro-1-[3-(piperidine-1-sulfonyl)-phenyl]-1-trifluoromethyl-ethylamine]
> 10000	> 10000	> 10000	NC(c1cccc(S(=O)(=O)N2CCCC2)c1)(C(F)(F)F)C(F)(F)F [Example 3, 2,2,2-Trifluoro-1-[3-(pyrrolidine-1-sulfonyl)-phenyl]-1-trifluoromethyl-ethylamine]
90	–	< 100	C[C@@H]1CN(c2ccc(C(N)(C(F)(F)F)C(F)(F)F)cc2C(F)(F)F)CCN1S(=O)(=O)c1ccc(C(C)(O)C(F)(F)F)cc1 (stereo partly drawn) [Example 16, 2-{4-([(2R)-4-[4-[1-amino-2,2,2-trifluoro-1-(trifluoromethyl)ethyl]-2-(trifluoromethyl)phenyl]-2-methylpiperazin-1-yl}sulfonyl)phenyl]-1,1,1-trifluoropropan-2-ol]
2380	2690	> 10000	NC(c1cccc(C(=O)N2CCCCC2)c1)(C(F)(F)F)C(F)(F)F [Example 7, [3-(1-Amino-2,2,2-trifluoro-1-trifluoromethyl-ethyl)-phenyl]-piperidin-1-yl-methanone]
< 10	–	160	C[C@@H]1CN(c2ccc(C(N)(C(F)(F)F)C(F)(F)F)nc2)CCN1S(=O)(=O)c1cccc(C(C)(O)C(F)(F)F)c1 (stereo partly drawn) [Example 14, 2-(3-{[(2R)-4-{6-[1-amino-2,2,2-trifluoro-1-(trifluoromethyl)ethyl]pyridin-3-yl}-2-methylpiperazin-1-yl]sulfonyl}phenyl)-1,1,1-trifluoropropan-2-ol]
565	645	225	CCN(CC)S(=O)(=O)c1ccc(C(N)(C(F)(F)F)C(F)(F)F)cc1 [Example 13, 4-(1-Amino-2,2,2-trifluoro-1-trifluoromethyl-ethyl)-N,N-diethyl-benzenesulfonamide]
–	291	–	CCN(CC)C(=O)c1cccc(C(N)(C(F)(F)F)C(F)(F)F)c1 [Example 11, 3-(1-Amino-2,2,2-trifluoro-1-trifluoromethyl-ethyl)-N,N-diethyl-benzamide]
80	–	200	C[C@@H]1CN(c2ccc(C(N)(C(F)(F)F)C(F)(F)F)cc2C(F)(F)F)CCN1S(=O)(=O)c1cccc(C(C)(O)C(F)(F)F)c1 (stereo partly drawn) [Example 15, 2-(3-{[(2R)-4-{4-[1-amino-2,2,2-trifluoro-1-(trifluoromethyl)ethyl]-2-(trifluoromethyl)phenyl}-2-methylpiperazin-1-yl]sulfonyl}phenyl)-1,1,1-trifluoropropan-2-ol]
–	165	–	CCN(CC)C(=O)c1ccc(C(N)(C(F)(F)F)C(F)(F)F)cc1 [Example 12, 4-(1-Amino-2,2,2-trifluoro-1-trifluoromethyl-ethyl)-N,N-diethyl-benzamide]
> 10000	> 10000	> 10000	CCN(CC)S(=O)(=O)c1cccc(C(N)(C(F)(F)F)C(F)(F)F)c1 [Example 4, 3-(1-Amino-2,2,2-trifluoro-1-trifluoromethyl-ethyl)-N,N-diethyl-benzenesulfonamide]

Compound	IC50 [1] [nM]	IC50 [2, 3] [nM]	IC50 [2, 4] [nM]
COc1ccc(N(C(=O)OC(C)(C)C)S(=O)(=O)c2cccc(C(N)(C(F)(F)F)C(F)(F)F)c2)cc1 [Example 8, 3-(1-Amino-2,2,2-trifluoro-1-trifluoromethyl-ethyl)-N-(tert-butoxycarbonyl)-N-(4-methoxy-phenyl)-benzenesulfonamide]	> 10000	> 10000	> 10000
CC(C)(C)OC(=O)N(Cc1ccccc1)S(=O)(=O)c1cccc(C(N)(C(F)(F)F)C(F)(F)F)c1 [Example 6, 3-(1-Amino-2,2,2-trifluoro-1-trifluoromethyl-ethyl)-N-benzyl-N-(tert-butoxycarbonyl)-benzenesulfonamide]	> 10000	> 10000	> 10000
CC(C)(C)OC(=O)N(C1CCCCC1)S(=O)(=O)c1cccc(C(N)(C(F)(F)F)C(F)(F)F)c1 [Example 5, 3-(1-Amino-2,2,2-trifluoro-1-trifluoromethyl-ethyl)-N-(tert-butoxycarbonyl)-N-cyclohexyl-benzenesulfonamide]	> 10000	> 10000	> 10000
COc1ccc(N(C(=O)OC(C)(C)C)S(=O)(=O)c2ccc(C(N)(C(F)(F)F)C(F)(F)F)cc2)cc1 [Example 10, 4-(1-Amino-2,2,2-trifluoro-1-trifluoromethyl-ethyl)-N-(tert-butoxycarbonyl)-N-(4-methoxy-phenyl)-benzenesulfonamide]	> 10000	> 10000	> 10000
